What was measured:
[1] = target: T1, first bromodomain (BrD1) of human BRD4 (Homo sapiens, UniProt O60885); assay: Fluorescence anisotropy binding assay (competition with FITC-labeled MS417 probe); details: FITC-MS417 probe 80 nM, PBS pH 7.4, 1 hour, 25° C., read-out: BRD4_1 IC50
T1 construct: the first bromodomain (BrD1) of human BRD4; poly-His (cleaved yes); made in house
Procedure: Fluorescence Anisotropy Binding Assay
Expression and purification of the first bromodomain (BrD1) of human BRD4 in poly-His tag form was performed using a procedure described in the literature [See Zeng et al. Structure 16, 643-652 (2008) and Zhang et al., J Biol Chem 287, 28840-28851 (2012).] The protein was purified by using affinity chromatography on a nickel-IDA column (Invitrogen), followed by the removal of poly-His tag by thrombin cleavage.
Binding affinity of the newly synthesized compounds to the BRD4 BrD1 was assessed in a fluorescence anisotropy assay using a fluorescein isothiocyanate (FITC)-labeled MS417 as an assay probe (Zhang et al. 2008 op.cit.). Competition binding was performed with a BrD protein (0.25 to 1 μM) and the fluorescent probe (80 nM), and increasing concentration of unlabeled competing ligand in a PBS buffer (pH 7.4) in total volume of 80 μL. Measurements were obtained after 1 hour incubation of the fluorescent ligand and the protein at 25° C. with Safire 2 microplate reader (Tecan). In the assay, fluorescent ligand concentration was ≦2Kd, and protein concentration was set at which 50-80% of fluorescent ligand is bound. Dissociation constant of a competing ligand was calculated with the correction to Cheng-Prussoff equation introduced by Nicolovska-Coleska and colleagues [Nikolovska-Coleska, Z. et al., Anal Biochem 332, 261-273 (2004). Assuming one-site competitive binding model, the equation used to calculate Ki's from IC50 values recovered from fitting data using Prism:
[formula] where [I50] is the concentration of free inhibitor at 50% inhibition, [L50], the concentration of free labeled ligand at 50% inhibition, and [P0], concentration of free protein at 0% inhibition. Note that Kd for each protein-probe pair is the limit of resolvable Ki in a competition assay.

BRD4_2 = target: T2, BRD4_2 (Homo sapiens, UniProt O60885); assay: Fluorescence anisotropy binding assay (competition with FITC-labeled MS417 probe), BRD4_2; details: FITC-MS417 probe 80 nM, PBS pH 7.4, 1 hour, 25° C.
T2 construct: contains two tandem bromodomains (BrD1 and BrD2)

| Structure (SMILES) | IC50 [1] | IC50 (BRD4_2) |
| --- | --- | --- |
| CC1=C(Nc2ccc(C(=O)Nc3cccc(C)c3)cc2Cl)CCC1=O [Example 04-21, 3-chloro-4-((2-methyl-3-oxocyclopent-1-en-1-yl)amino)-N-(m-tolyl)benzamide] | < 1 µM | 1 to 10 µM |
| COc1ccc(Cn2cc(-c3cccc(NC4=C(C)C(=O)CC4)c3)nn2)cc1 [Example 06-15, 3-((3-(1-(4-methoxybenzyl)-1H-1,2,3-triazol-4-yl)phenyl)amino)-2-methylcyclopent-2-enone] | < 1 µM | 1 to 10 µM |
| CC1=C(Nc2ccc(C(=O)Nc3cccc(F)c3)c(Cl)c2)CCC1=O [Example 04-52, 2-chloro-N-(3-fluorophenyl)-4-((2-methyl-3-oxocyclopent-1-en-1-yl)amino)-benzamide] | > 10 µM | > 10 µM |
| CC1=C(Nc2ccc(C(=O)Nc3ccc(C)cc3)cc2)CCC1=O [Example 03-7] | 1 to 10 µM | 1 to 10 µM |
| CC1=C(Nc2ccc(C(=O)Nc3cccc4ccccc34)c(Cl)c2)CCC1=O [Example 04-44, 2-chloro-4-((2-methyl-3-oxocyclopent-1-en-1-yl)amino)-N-(naphthalen-1-yl)-benzamide] | 1 to 10 µM | > 10 µM |
| CC1=C(Nc2cccc(-c3cn(-c4ccccc4)nn3)c2)CCC1=O [Examples 06-2, 2-methyl-3-((3-(1-phenyl-1H-1,2,3-triazol-4-yl)phenyl)amino)cyclopent-2-enone] | 1 to 10 µM | 1 to 10 µM |
| CC1=C(Nc2cc(S(N)(=O)=O)ccc2Cl)CCC1=O [Example 01-46, 4-chloro-3-((2-methyl-3-oxocyclopent-1-en-1-yl)amino)benzene-sulfonamide] | 1 to 10 µM | 1 to 10 µM |
| CC1=C(N[C@H]2CC[C@H](C(=O)Nc3ccc(C)cc3)CC2)CCC1=O [Example 04-32, (1R,4R)-4-((2-methyl-3-oxocyclopent-1-en-1-yl)amino)-N-(p-tolyl)-cyclohexanecarboxamide] | > 10 µM | > 10 µM |
| CC1=C(Nc2ccc(C(=O)Nc3ccccc3)cc2C)CCC1=O [Example 04-80, 3-methyl-4-((2-methyl-3-oxocyclopent-1-en-1-yl)amino)-N-phenylbenzamide] | 1 to 10 µM | 1 to 10 µM |
| N#CC1=C(Nc2cccc(Cl)c2)CCCC1=O [Example 05-32, 2-((3-chlorophenyl)amino)-6-oxocyclohex-1-enecarbonitrile] | > 10 µM | > 10 µM |
| COc1ccccc1NC(=O)c1ccc(NC2=C(C)C(=O)CC2)cc1Cl [Example 04-46, 2-chloro-N-(2-methoxyphenyl)-4-((2-methyl-3-oxocyclopent-1-en-1-yl)amino)benzamide] | 1 to 10 µM | > 10 µM |
| CC1=C(Nc2cccc(N)c2Cl)CCCC1=O [Example 02-11, 3-((3-amino-2-chlorophenyl)amino)-2-methylcyclohex-2-enone] | 1 to 10 µM | > 10 µM |
| CC1=C(Nc2cccc(-c3cn(Cc4ccccc4C)nn3)c2)CCC1=O [Example 06-10, 2-methyl-3-((3-(1-(2-methylbenzyl)-1H-1,2,3-triazol-4-yl)phenyl)amino)cyclopent-2-enone] | < 1 µM | 1 to 10 µM |
| CC1=C(Nc2ccc(C(=O)Nc3ccccc3)cc2)CCC1=O [Example 03-1] | 1 to 10 µM | 1 to 10 µM |
| COc1cc(NC2=C(C)C(=O)CC2)ccc1C(=O)Nc1cccc(C)c1 [Example 04-73, 2-methoxy-4-((2-methyl-3-oxocyclopent-1-en-1-yl)amino)-N-(m-tolyl)benzamide] | 1 to 10 µM | 1 to 10 µM |
| CC1=C(Nc2ccc(C(=O)O)cc2F)CCC1=O [Examples 02-6] | 1 to 10 µM | > 10 µM |
| COC(=O)c1ccccc1NC1=C(C)C(=O)CC1 [Example 01-19, methyl 2-((2-methyl-3-oxocyclopent-1-en-1-yl)amino)benzoate] | > 10 µM | > 10 µM |
| C#Cc1cccc(NC2=C(C)C(=O)CC2)c1 [Examples 06-1] | 1 to 10 µM | > 10 µM |
| CC1=C(Nc2ccc(C(=O)N(C)C)cc2)CCC1=O [Example 03-20, N,N-dimethyl-4-((2-methyl-3-oxocyclopent-1-en-1-yl)amino)benzamide] | > 10 µM | > 10 µM |
| CC1=C(Nc2cccc(C(=O)Nc3ccccc3C)c2)CCC1=O [Example 04-5] | 1 to 10 µM | 1 to 10 µM |

| Structure (SMILES) | IC50 [1] | IC50 (BRD4_2) |
| --- | --- | --- |
| CC1=C(Nc2cccc(-c3cn(Cc4ccccc4F)nn3)c2)CCC1=O [Examples 06-8] | < 1 µM | 1 to 10 µM |
| COc1ccccc1NC(=O)c1ccc(NC2=C(C)C(=O)CC2)cc1OC [Example 04-69, 2-methoxy-N-(2-methoxyphenyl)-4-((2-methyl-3-oxocyclopent-1-en-1-yl)amino)-benzamide] | < 1 µM | > 10 µM |
| CNC(=O)c1ccc(NC2=C(C)C(=O)CC2)c(C)c1 [Example 04-77, N,3-dimethyl-4-((2-methyl-3-oxocyclopent-1-en-1-yl)amino)benzamide] | 1 to 10 µM | > 10 µM |
| CC1=C(Nc2cc(C(=O)Nc3ccc(C(=O)O)cc3C)ccc2Cl)CCCC1=O [Example 04-97, 4-(4-chloro-3-((2-methyl-3-oxocyclohex-1-en-1-yl)amino)benzamido)-3-methylbenzoic acid] | 1 to 10 µM | > 10 µM |
| COc1ccccc1NC(=O)c1ccc(NC2=C(C)C(=O)CC2)cc1 [Example 03-10, N-(2-methoxyphenyl)-4-((2-methyl-3-oxocyclopent-1-en-1-yl)amino)benzamide] | 1 to 10 µM | 1 to 10 µM |
| COc1ccccc1NC(=O)c1ccc(NC2=C(C)C(=O)CCC2)c(Cl)c1 [Example 05-14, 3-chloro-N-(2-methoxyphenyl)-4-((2-methyl-3-oxocyclohex-1-en-1-yl)amino)benzamide] | < 1 µM | 1 to 10 µM |
| Cc1ccccc1NC(=O)c1ccc(Cl)c(NC2=C(C#N)C(=O)CCC2)c1 [Example 05-34, 4-chloro-3-((2-cyano-3-oxocyclohex-1-en-1-yl)amino)-N-(o-tolyl)benzamide] | > 10 µM | > 10 µM |
| COc1ccc(NC(=O)c2cc(NC3=C(C)C(=O)CCC3)cc3ccccc23)cc1 [Example 04-105, N-(4-methoxyphenyl)-3-((2-methyl-3-oxocyclohex-1-en-1-yl)amino)-1-naphthamide] | < 1 µM | 1 to 10 µM |
| CC1=C(Nc2cccc(C(=O)Nc3cccc4ccccc34)c2)CCC1=O [Example 04-2] | 1 to 10 µM | 1 to 10 µM |
| COc1ccccc1NC(=O)c1ccc(NC2=C(C)C(=O)CC2)c(C)c1 [Example 04-81, N-(2-methoxyphenyl)-3-methyl-4-((2-methyl-3-oxocyclopent-1-en-1-yl)amino)-benzamide] | 1 to 10 µM | 1 to 10 µM |
| COC(=O)c1ccc(NC2=CC(=O)CC2)cc1 [Example 01-1] | 1 to 10 µM | 1 to 10 µM |
| CC1=C(Nc2cccc(C(=O)Nc3ccccc3F)c2)CCC1=O [Example 04-8] | 1 to 10 µM | 1 to 10 µM |
| COc1ccc(NC(=O)c2ccc(NC3=C(C)C(=O)CC3)c(C)c2)cc1 [Example 04-83, N-(4-methoxyphenyl)-3-methyl-4-((2-methyl-3-oxocyclopent-1-en-1-yl)amino)-benzamide] | 1 to 10 µM | 1 to 10 µM |
| CC1=C(Nc2cccc(C(=O)NC3CCCCC3)c2)CCC1=O [Example 04-1] | 1 to 10 µM | 1 to 10 µM |
| CC1=C(Nc2ccc(-c3cn(Cc4ccccc4)nn3)cc2)CCC1=O [Example 06-28] | < 1 µM | 1 to 10 µM |
| CC1=C(N[C@H]2CC[C@@H](C(=O)O)CC2)CCC1=O [Example 01-34, cis-(1S,4S)-4-((2-methyl-3-oxocyclopent-1-en-1-yl)amino)cyclohexanecarboxylic acid] | > 10 µM | > 10 µM |
| COc1cccc(NC(=O)c2ccc(NC3=C(C)C(=O)CC3)cc2Cl)c1 [Example 04-47, 2-chloro-N-(3-methoxyphenyl)-4-((2-methyl-3-oxocyclopent-1-en-1-yl)amino)benzamide] | > 10 µM | > 10 µM |
| CNC(=O)c1ccc(NC2=C(C)C(=O)CC2)c(Cl)c1 [Example 04-13, 3-chloro-N-methyl-4-((2-methyl-3-oxocyclopent-1-en-1-yl)amino)benzamide] | 1 to 10 µM | 1 to 10 µM |
| CC1=C(Nc2ccc(C(=O)Nc3ccc(C)cc3)cc2Cl)CCC1=O [Example 04-22, 3-chloro-4-((2-methyl-3-oxocyclopent-1-en-1-yl)amino)-N-(p-tolyl)benzamide] | 1 to 10 µM | 1 to 10 µM |

From patent US9884806B2, “Cyclic vinylogous amides as bromodomain inhibitors” (ICAHN SCHOOL OF MEDICINE AT MOUNT SINAI, priority 2013, dated 2018)
